Laboratory results: patent publication US7345091B2, “Carotenoid ether analogs or derivatives for the inhibition and amelioration of disease” (Cardax Pharmaceuticals, Inc., priority 2002, dated 2008)
“Also recorded” adds a separate entry of the source. Structures can show the parent of a compound that is named as a salt.

Key:
male ICR mice = assay: LPS/galactosamine-induced liver injury (plasma ALT); type: in vivo, mouse; details: for LPS-induced ALT elevation: 500 mg/kg oral gavage in emulsion 2 hours before LPS/D-galactosamine IP, 5 hours
Experimental: Three-month old male ICR mice were treated with LPS and galactosamine in order to induce liver injury (Leist, 1995). Mice were first orally gavaged with either an olive oil/water/lecithin emulsion (10 mL/kg, or 0.3 mL for a 30 gram mouse), or the same emulsion containing the disodium disuccinate astaxanthin derivative XVI (50 mg/mL) for a final disodium disuccinate astaxanthin dose of 500 mg/kg. Two hours later mice were injected intraperitoneally (IP) with either saline (10 mL/kg) or a solution of E. coli LPS (3 mg/kg, Sigma catalog number L-3755) and D-galactosamine (700 mg/kg). Animals were sacrificed by carbon dioxide (CO2) asphyxiation 5 hours after the IP injection, and plasma was then collected for ALT determination.

C3H/10T1/2 cells = assay: Assembly of Cx43 into plaques (immunofluorescent staining); type: cell-based, mouse; details: 1×10^-5 M in 1:2 EtOH/H2O, 4 days
Experimental: In this experiment expression and assembly of Cx43 into plaques was assessed by immunofluorescent staining. Procedures were essentially as described in Zhang (1992). Briefly, confluent cultures of C3H/10T1/2 cells were grown on Permanox plastic 4-chamber slides (Nalge Nunc International, Naperville, Ill.) and treated for 4 days with: (1) the disodium salt disuccinate astaxanthin derivative XVI (statistical mixture of stereoisomers) dissolved in a 1:2 EtOH/H2O formulation; (2) the retinoid TTNPB at 1×10^−8 M in tetrahydrofuran as a positive control; or (3) 1:2 EtOH/H2O as a solvent control. Cells were fixed with −20° C. methanol overnight, washed in buffer, blocked in 1% bovine serum albumin (Sigma, St, Louis, Mo.) in PBS, and incubated with the rabbit polyclonal anti-Cx43 antibody (Zymed, San Francisco, Calif.) as in (2) above and detected with Alexa568 conjugated anti-rabbit secondary (Molecular Probes, Eugene, Oreg.). Slides were illuminated with […] light and images were acquired at a wavelength of 600 nm using the Zeiss Axioscope light microscope and a Roper Scientific cooled CCD camera. […] In cultures treated with solvent as control, such immunoreactive plaques were infrequent and were smaller than those detected in cells treated with the statistical mixture of stereoisomers of the disodium salt disuccinate astaxanthin derivative XVI or with TTNPB as positive control. […]

[1] = Liver accumulation of free astaxanthin after single oral dose; type: in vivo, male C57BL/6 mice
Experimental: Free astaxanthin concentration was also determined, at the same time points as for plasma samples, in liver. Livers were removed from each animal in the pharmacokinetic study after sacrifice, and snap frozen in liquid nitrogen. Liver tissue was prepared for HPLC analysis as described (Jewell, 1999). Therefore, simultaneous examination of liver accumulation of free astaxanthin was performed at the same time points as the plasma analyses. Up to 300 mg of liver from each animal was snap frozen in liquid nitrogen. Tissue homogenization and extraction were performed with a mixture of chloroform/methanol/water, according to the methods of Jewell (1999). Non-esterified, free astaxanthin accumulation in liver was then evaluated by HPLC as described above for plasma samples.

Cx43 protein = Cx43 protein expression by stereoisomer forms (immuno-(Western) blotting, 4 days); type: cell-based, mouse; details: 1×10^-5 M in 1:2 ethanol/H2O
Experimental: (2) Molecular Studies. […] Briefly, mouse embryonic fibroblast C3H10T1/2 cells were cultured in Eagle's basal medium with Earle's salts (Atlanta Biologicals, Atlanta, Ga.), supplemented with 5% fetal calf serum (Atlanta Biologicals, Atlanta, Ga.) and 25 μg/mL gentamicin sulfate (Sigma, St. Louis, Mo.), and incubated at 37° C. in 5% CO2. On the 7th day after seeding in 100 millimeter (mm) dishes, the confluent cells were treated for four days with the disodium salt disuccinate astaxanthin derivatives XVI and then harvested and analyzed for Cx43 protein induction as described. Protein content was measured using the Protein Assay Reagent kit (Pierce Chemical Co., Rockford, Ill.) according to manufacturer's instructions. Cell lysates containing 100 μg of protein were analyzed by Western blotting using the NuPage western blotting kit and apparatus (Invitrogen, Carlsbad, Calif.) and Cx43 protein detected using a rabbit polyclonal antibody (Zymed, San Francisco, Calif.) raised against a synthetic polypeptide corresponding to the C-terminal domain of mouse, human and rat Cx43. Cx43 immunoreactive bands were visualized by chemiluminescence using an anti-rabbit HRP-conjugated secondary antibody (Pierce Chemical Co., Rockford, Ill.). Digital images were obtained with a cooled CCD camera, and quantitative densitometry was then performed (Bio-Rad, Richmond, Calif.).

[2] = Determination of water solubility; type: physicochemical
Experimental: A total of 30 mg of sample (disodium disuccinate astaxanthin derivative, as the all-trans mixture of stereoisomers 3S,3′S, meso, and 3R,3′R in a 1:2:1 ratio) was added to 2 mL of sterile-filtered ([…] Millipore®) deionized (DI) water in a 15 mL glass centrifuge tube. The tube was wrapped in aluminum foil and the mixture was shaken for 2 hours, then centrifuged at 3500 rpm for 10 minutes. The aqueous solution was filtered through a 0.45 micron PVDF disposable filter device. A 1 mL volume of filtrate was then diluted appropriately with DI water, and the concentration of the solution was measured at 480 nm using a four point calibration curve prepared from fresh sample.

Oral clearance ([1]; Liver, free astaxanthin, single 500 mg/kg oral dose): 15.856 L/h
liver vs plasma levels of free astaxanthin at each sampling interval ([1]; single 500 mg/kg oral gavage in emulsion): equal or greater to that in plasma
solubility at 2 h ([2]; deionized water, water, thermodynamic from solid, pure aqueous formulation): 8.64 mg/mL
increase in solubility in the dosing vehicle ([2]; emulsion vs pure aqueous formulation): 6 fold
solubility ([2]; olive oil/water/soybean lecithin emulsion, aqueous with cosolvent or surfactant or cyclodextrin, olive oil/water/soybean lecithin emulsion for oral gavage): ~50 mg/mL
water solubility ([2]; pure aqueous formulation): approximately 8.64 mg/mL
SMILES: CC1=C(/C=C/C(C)=C/C=C/C(C)=C/C=C/C=C(C)/C=C/C=C(C)/C=C/C2=C(C)C(=O)C(OC(=O)CCC(=O)O)CC2(C)C)C(C)(C)CC(OC(=O)CCC(=O)O)C1=O (racemic) [XVI, Disodium Salt of the Disuccinic Acid Ester of Astaxanthin]
LPS-induced ALT elevation (male ICR mice): substantially reduced
LPS-induced ALT elevation (male ICR mice; listed as disodium disuccinate astaxanthin derivative): reduced induced levels of ALT
effect on plasma ALT in saline injected (sham-treated) animals (male ICR mice; 500 mg/kg oral gavage in emulsion, listed as disodium disuccinate astaxanthin derivative): no effect on plasma ALT; also recorded: no effect on background levels of ALT
assembly of immunoreactive Cx43 into plaques (C3H/10T1/2 cells): increases assembly of Cx43; also recorded: exhibited assembly of immunoreactive Cx43 into plaques
rank of Cx43 induction level among derivatives (Cx43 protein): highest induction level of Cx43 of all derivatives tested
expression of Cx43 protein (Cx43 protein; four days, vs 1:2 ethanol/H2O alone): increase expression of Cx43 protein
